Reference: article PMC6406325, “ATP- and Polyphosphate-Dependent Glucokinases from Aerobic Methanotrophs” (Microorganisms, 2019)
Each block holds one compound with its values, some of them ahead of it.

How the values were obtained:
Type in all cases: biochemical, Methylomonas sp. 12
ATP-Glk [1] = biological target: T1, ATP-Glk (Methylomonas sp., UniProt A0A3G4RI75); test: effect on glucokinase activity with ATP and glucose
T1 construct: full-length, His6-tagged (N-terminal), pET30(a)+ in E. coli Rosetta (DE3), Ni-NTA; gene 990 bp; di- to hexamers
T1 sequence (A0A3G4RI75 1-329): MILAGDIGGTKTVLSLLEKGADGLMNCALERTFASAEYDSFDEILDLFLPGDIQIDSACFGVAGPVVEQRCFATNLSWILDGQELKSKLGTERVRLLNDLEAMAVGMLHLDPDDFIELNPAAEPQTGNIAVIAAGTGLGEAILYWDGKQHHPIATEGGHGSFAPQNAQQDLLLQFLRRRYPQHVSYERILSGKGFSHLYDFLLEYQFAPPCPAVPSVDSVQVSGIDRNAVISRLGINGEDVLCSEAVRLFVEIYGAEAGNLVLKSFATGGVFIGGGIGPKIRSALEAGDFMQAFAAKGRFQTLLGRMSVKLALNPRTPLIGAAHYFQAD
Source text: effect on glucokinase activity with ATP and glucose on ATP-Glk

polyP-Glk [2] = biological target: T2, polyP-Glk (Methylomonas sp., UniProt A0A3G4RHV5); test: effect on glucokinase activity with polyP and glucose; conditions: polyP (n=45) and glucose as substrates; activator, not a phosphoryl donor; ATP concentration not printed in table (10 mM elsewhere in the source)
T2 construct: gene pglk; full-length, His6-tagged (N-terminal), E. coli Rosetta (DE3), Ni-NTA; gene 795 bp; dimer with polyP
T2 sequence (A0A3G4RHV5 1-264): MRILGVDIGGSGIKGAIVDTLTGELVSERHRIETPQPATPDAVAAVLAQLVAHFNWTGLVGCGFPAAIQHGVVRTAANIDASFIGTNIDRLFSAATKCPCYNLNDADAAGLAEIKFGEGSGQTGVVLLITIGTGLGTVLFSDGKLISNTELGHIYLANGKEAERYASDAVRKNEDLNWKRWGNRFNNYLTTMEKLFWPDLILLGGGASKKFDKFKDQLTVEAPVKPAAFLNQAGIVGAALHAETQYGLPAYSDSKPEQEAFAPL
Source text: effect on glucokinase activity with polyP and glucose on polyP-Glk

ATP-Glk [3] = biological target: T1, ATP-Glk; test: glucose 6-phosphate dehydrogenase coupled NADP+ reduction at […] nm; conditions: saturating ATP; Mg2+; pH 7.5; 30 °C
polyP-Glk [4] = biological target: T2, polyP-Glk; test: as above; conditions: saturating polyP (n=45); Mg2+; pH 8.5; 28 °C
[5] = system: T3, Nc1ncnc2c1ncn2[C@@H]1O[C@H](COP(=O)(O)OP(=O)(O)OP(=O)(O)O)[C@@H](O)[C@H]1O; test: purified protein; conditions: saturating glucose, Mg2+, pH 7.5, 30 °C
T3 construct: full-length, His6-tagged (N-terminal), pET30(a)+ in E. coli Rosetta (DE3), Ni-NTA; gene 990 bp; di- to hexamers

activity at 5000 µM (ATP-Glk [1]): 48.9%
Compound: Nc1ncnc2c1ncn2[C@@H]1O[C@H](COP(=O)(O)OP(=O)(O)O)[C@@H](O)[C@H]1O [ADP]

PolyP-Glk ** (polyP-Glk [2]): 155.0%
Compound: Nc1ncnc2c1ncn2[C@@H]1O[C@H](COP(=O)(O)OP(=O)(O)OP(=O)(O)O)[C@@H](O)[C@H]1O [ATP]

Km (ATP-Glk [3]): 80 ± 7 µM
Km (polyP-Glk [4]): 450 ± 120 µM
Compound: OC[C@H]1OC(O)[C@H](O)[C@@H](O)[C@@H]1O (stereo partly shown) [glucose]

Compound: ATP-Glk (Methylomonas methanica)
Km [5]: 78 ± 5.6 µM
kcat [5]: 0.126 s⁻¹
kcat/Km [5]: 1610 M⁻¹ s⁻¹
